We go through one sequence from EP1114151B1, “G PROTEIN-COUPLED RECEPTOR ANTAGONISTS” (Hopital Sainte-Justine, priority 1998, dated 2011).

The test system of the assay is FP receptor. Put plainly: porcine eyecup model of ex vivo vasomotricity assay, PGF2α-induced constriction of retinal microvessels. The source says: In order to see if the peptides could inhibit FP function using an ex vivo model, we chose porcine eyecup model, an ex vivo assay of vascular constriction in porcine retinas which we previously described and validated (Li et al., 1996 J. Pharmacol. Expt. Therapeut. 278: 370-377; Li et al., 1997 Am. J. Physiol. 273: R1283-90; Abran et al., 1997 Am. J. Physiol. 272: R995-1001). Since FP receptor densities in newborn vasculature are minimal due to down regulation by high levels of circulating prostaglandins in the perinatal period, the newborn pigs were treated with a prostaglandin synthetase blocker, ibuprofen (30 mg/Kg of bodyweight/ 8 h for 24 h) to increase the density of the receptors as well as their vasomotor effects. By inhibiting circulating prostaglandins; we were able to show potent inhibition of FP receptor-mediated second messenger synthesis as well as FP-mediated vascular constriction in this eyecup model.
The preparations were allowed to stabilize for 30 min.
Vascular diameter was recorded before and 10 min following the topical application of the agent.
Small letters indicate L-amino acids and capital letters indicate D- amino acids. I = isoleucine; L= leucine; G =glycine; H=histidine, R=Arginine; D=Aspartic acid; Y=Tyrosine; […]; A-Alanine; W= Tryptophan; E-Glutamic acid; F= Phenyl alanine; Q=Glutamine; N=Aspargine; P=Proline; S=Serine; X=Cyclohexyl alanine.

With “ILGHKDYK [PCP-13.13, R to K variant of PCP-13]”, the “%Vasomotor response (of constriction)” value (100 µM peptide added 30 min before 10^-7 M PGF2α, relative to maximal constriction in the absence of peptide) stood at 36.9%. Moreover, the “% inhibition of maximal max. response” value (100 µM peptide, 10^-7 M PGF2α, calculated as 100 - per cent vasomotor response) is listed as 63.1%. Also, the “change of inhibitory activity relative to the parent peptide (in words)” value (peptides at 100 µM, compared with PCP-13 (PCP-13 and PCP-11 with PCP-8, PCP-12 with PCP-10)) was “affected the activity of PCP-13 moderately”.
